The results in this text go back to patent US12344610B2, “APOL1 inhibitors and methods of use” (Maze Therapeutics, Inc., priority 2022, dated 2025).

pEC50: −log10 of the molar value.

For assay [1], the system named is Trypanosoma brucei Lister 427 VSG221 with APOL1 G0 recombinant protein. Put plainly: APOL1 G0 trypanosome cell rescue assay (Example B5). It counts as cell-based. As to conditions: Trypanosoma brucei, 20 h, read-out: APOL1 G0 Trypanosome Rescue EC50, Trypanosoma brucei Lister 427 VSG221 with APOL1 G0 recombinant protein, 20 hours, CellTiter-Glo; geometric mean of at least 2 assay runs; † = single assay run. In short, it runs like this:
(§1)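 Compounds in duplicate 2-fold, 11-point series with 0.4% DMSO final. Next, tag-free mature APOL1 variant protein went in from a 2 μg/mL solution, then trypanosomes to 250 per well. Plates incubated 20 h humidified at 37° C, equilibrated to room temperature, and CellTiter-Glo added for luminescence.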
In general terms: ATP-based viability assays read luminescence as a measure of living cells.

The test system of assay [2] is Trypanosoma brucei Lister 427 VSG221 with APOL1 G2 recombinant protein. Put plainly: APOL1 G2 trypanosome cell rescue assay (Example B5). It counts as cell-based. As to conditions: Trypanosoma brucei, 20 h, read-out: APOL1 G2 Trypanosome Rescue EC50, Trypanosoma brucei Lister 427 VSG221 with APOL1 G2 recombinant protein, 20 hours, CellTiter-Glo; geometric mean of at least 2 assay runs; † = single assay run. Summed up: as §1

Take `CP(C)(=O)C1(c2ccc(OCCN3CCC4(CC3)C(=O)Nc3ccc(Cl)cc34)cc2)CC1` [Compound 343, 5-chloro-1′-(2-{4-[1-(dimethylphosphoryl)cyclopropyl]phenoxy}ethyl)-1,2-dihydrospiro[indole-3,4′-piperidin]-2-one]: the pEC50 – broadly, the negative decadic logarithm of the EC50, by convention in mol/L – in assay [1] was 6.76; in assay [2] it was 7.19.

For the compound `C[C@]1(O)C[C@@H](N2C(=O)Cc3cc(OCCN4CCC5(CC4)C(=O)Nc4ccc(Cl)cc45)cnc32)C1` [Compound 345, 5-chloro-1′-[2-({2-oxo-1-[(cis)-3-hydroxy-3-methylcyclobutyl]-1H,2H,3H-pyrrolo[2,3-b]pyridin-5-yl}oxy)ethyl]-1,2-dihydrospiro[indole-3,4′-piperidin]-2-one], the pEC50 in assay [1] was 6.79; in assay [2] it was 7.10.

Regarding `C[C@]1(O)C[C@@H](N2C(=O)Cc3cc(OCCN4CCC5(CC4)C(=O)Nc4ccc(C(F)F)cc45)cnc32)C1` [Compound 346, 5-(difluoromethyl)-1′-[2-({2-oxo-1-[(cis)-3-hydroxy-3-methylcyclobutyl]-1H,2H,3H-pyrrolo[2,3-b]pyridin-5-yl]oxy)ethyl]-1,2-dihydrospiro[indole-3,4′-piperidin]-2-one], the results for the pEC50 in assay [1] and in assay [2] were 7.08 and 7.42, respectively.

In the case of `C[C@]1(O)C[C@@H](n2ccc3cc(OCCN4CCC5(CC4)C(=O)Nc4ccc(Cl)cc45)cnc32)C1` [Compound 349, 5-chloro-1′-[2-({1-[(cis)-3-hydroxy-3-methylcyclobutyl]-1H-pyrrolo[2,3-b]pyridin-5-yl}oxy)ethyl]-1,2-dihydrospiro[indole-3,4′-piperidin]-2-one], the values for the pEC50 in assay [1] and in assay [2] were 7.19 and 7.48, respectively.

On to `C[C@]1(O)C[C@@H](n2cnc3cc(OCCN4CCC5(CC4)C(=O)Nc4ccc(Cl)cc45)cc(C(F)(F)F)c32)C1` [Compound 352, 5-chloro-1′-[2-({1-[(cis)-3-hydroxy-3-methylcyclobutyl]-7-(trifluoromethyl)-1H-1,3-benzodiazol-5-yl}oxy)ethyl]-1,2-dihydrospiro[indole-3,4′-piperidin]-2-one], for which the pEC50 was 7.73 in assay [1] and 8.09 in assay [2].

Consider `C[C@]1(O)C[C@@H](N2C(=O)NCc3cc(OCCN4CCC5(CC4)C(=O)Nc4ccc(Cl)cc45)cnc32)C1` [Compound 356, 5-chloro-1′-[2-({2-oxo-1-[(cis)-3-hydroxy-3-methylcyclobutyl]-1H,2H,3H,4H-pyrido[2,3-d]pyrimidin-6-yl}oxy)ethyl]-1,2-dihydrospiro[indole-3,4′-piperidin]-2-one], for which the pEC50 is 7.00 in assay [1] and 7.43 in assay [2].

In the case of `CC(C)(O)c1ncc(OCCN2CCC3(CC2)C(=O)Nc2ccc(Cl)cc23)cc1C(F)(F)F` [Compound 371, 5-chloro-1′-(2-{[6-(2-hydroxypropan-2-yl)-5-(trifluoromethyl)pyridin-3-yl]oxy}ethyl)-1,2-dihydrospiro[indole-3,4′-piperidin]-2-one], the pEC50 in assay [1] was 7.73; in assay [2] it was 8.04.

On to `CCC1(O)CN(c2ncc(OCCN3CCC4(CC3)C(=O)Nc3ccc(Cl)cc34)cn2)C1` [Compound 397, 5-chloro-1′-(2-{[2-(3-ethyl-3-hydroxyazetidin-1-yl)pyrinlidin-5-yl]oxy}ethyl)-1,2-dihydrospiro[indole-3,4′-piperidin]-2-one], for which the pEC50 in assay [1] was 6.65; in assay [2], 7.07.

Regarding `C[C@]1(O)C[C@@H](n2ccc3cc(OCCN4CCC5(CC4)C(=O)Nc4ccc(C#N)cc45)cnc32)C1` [Compound 410, 2-oxo-1′-[2-({1-[(cis)-3-hydroxy-3-methylcyclobutyl]-1H-pyrrolo[2,3-b]pyridin-5-yl}oxy)ethyl]-1,2-dihydrospiro[indole-3,4′-piperidine]-5-carbonitrile], the pEC50 in assay [1] is 6.69; in assay [2], 7.03.
